No end group written: not given here.
Tests used:
[1] = IVIS distribution of Cy5.5-labeled peptide in DSS-induced acute inflammatory bowel disease model; type: in vivo; details: IP injection, DSS mice, 30, 60 and 180 minutes, FIG. 7
Text: In order to confirm distribution of the synthesized peptide to the colon, inflammation was induced in mice using 5% DSS as drinking water for 7 days, after which the Cy5.5-labeled peptide of SEQ ID NO: 1 was IP-injected thereto.

[2] = target: T1, integrin beta 1 (Mus musculus, UniProt P09055); assay: Confocal co-localization of Cy5.5-labeled peptide with integrin beta 1 in colon tissue; type: in vivo, mice; details: 1 hour after injection, FIG. 11
T1 construct: from tissue; host or cells: colon of mice with DSS-induced colitis
T1 sequence (P09055 21-798): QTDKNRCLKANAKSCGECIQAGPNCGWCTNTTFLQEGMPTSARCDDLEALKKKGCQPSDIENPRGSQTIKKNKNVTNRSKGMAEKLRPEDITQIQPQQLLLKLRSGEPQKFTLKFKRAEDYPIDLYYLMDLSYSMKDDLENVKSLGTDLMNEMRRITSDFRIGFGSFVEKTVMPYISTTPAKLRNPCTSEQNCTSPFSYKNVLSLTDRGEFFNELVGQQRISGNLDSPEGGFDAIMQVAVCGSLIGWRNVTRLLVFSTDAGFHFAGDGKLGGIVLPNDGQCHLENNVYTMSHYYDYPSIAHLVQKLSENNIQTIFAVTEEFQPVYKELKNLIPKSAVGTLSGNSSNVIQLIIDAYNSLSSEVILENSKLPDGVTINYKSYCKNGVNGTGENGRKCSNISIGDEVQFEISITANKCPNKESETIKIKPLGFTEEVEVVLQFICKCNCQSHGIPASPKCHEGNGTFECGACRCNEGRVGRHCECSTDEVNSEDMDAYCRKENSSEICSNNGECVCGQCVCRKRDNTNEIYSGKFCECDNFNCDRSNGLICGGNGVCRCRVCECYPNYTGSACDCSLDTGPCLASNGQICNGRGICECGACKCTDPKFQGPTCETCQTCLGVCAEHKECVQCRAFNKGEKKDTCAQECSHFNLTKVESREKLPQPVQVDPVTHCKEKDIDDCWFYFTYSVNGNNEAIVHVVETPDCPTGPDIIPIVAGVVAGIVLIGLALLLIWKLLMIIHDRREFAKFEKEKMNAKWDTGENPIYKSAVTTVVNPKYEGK
Text: In order to confirm co-localization of synthesized peptide to the colon, inflammation was induced in mice using 5% DSS in drinking water for 7 days, followed by the cy5.5-labeled peptide of SEQ ID NO: 1 was […] thereto. An hour after injection, each mouse was sacrificed and the colon tissue was isolated for analysis. Excised colons were fixed with 4% paraformaldehyde, and made frozen tissue block with Tissue-Tek® O.C.T. compound (4583, Sakura). Frozen tissue block was sectioned using clinical cryostat (CM1950, Leica) and placed on microscope slides.
Each sectioned tissue slides were stained for immunofluorescence. In brief, sectioned slides were permeabilized with 0.5% Triton X-100 (9036-19-5, Sigma-Aldrich) in PBS for 10 min. Next, 5% BSA in PBS were treated 30 minutes for blocking, followed by overnight incubation of anti-integrin beta 1 diluted in blocking buffer. After washing the slides, Alexa Fluor 488 conjugated anti-mouse secondary antibody (A-11001, Thermo Fisher Scientific) was diluted and incubated for an hour, and DAPI staining. Slides were mounted for imaging in confocal microscopy (LSM700, Carl Zeiss).

[3] = system: DSS-induced acute inflammatory bowel disease; assay: Therapeutic effect in animal model of DSS-induced acute inflammatory bowel disease; type: in vivo, ICR mice
Experimental: In order to confirm the therapeutic effect of the synthesized peptide in animals, acute inflammatory bowel disease was induced with DSS in ICR mice (Orient Bio), and simultaneously, the synthesized peptide was injected thereto. Inflammation was induced in mice using 5% DSS as drinking water for 7 days, and simultaneously, the synthesized peptide was IP-injected thereto. The normal group (Normal, n=6) was not treated with DSS, and in the untreated group (No treatment, n=6), only DSS was used, and no drug was injected. The positive control group (SAHA, Sigma-Aldrich, 25 mg/kg, n=6), the immunomodulatory control group (Anti-TNF-a antibody, Pfizer, 1 mg/kg, n=6), and the peptide of SEQ ID NO: 1 (50 mg/kg, n=6) were injected once daily. After 7 days, mice were sacrificed by CO2 hyperventilation, the colons were collected, and the lengths thereof were compared. Additionally, the tissue was fixed and processed to prepare a paraffin block, and H&E staining was performed to determine whether the intestinal tissue was damaged.

[4] = target: T2, type VII collagen (Homo sapiens, UniProt Q02388); assay: Slot blotting, selectivity to collagen types: type VII (Experimental Example 2); type: binding
T2 construct: purchased MyBioSource, Inc. MBS2018615
T2 sequence (Q02388 17-2944): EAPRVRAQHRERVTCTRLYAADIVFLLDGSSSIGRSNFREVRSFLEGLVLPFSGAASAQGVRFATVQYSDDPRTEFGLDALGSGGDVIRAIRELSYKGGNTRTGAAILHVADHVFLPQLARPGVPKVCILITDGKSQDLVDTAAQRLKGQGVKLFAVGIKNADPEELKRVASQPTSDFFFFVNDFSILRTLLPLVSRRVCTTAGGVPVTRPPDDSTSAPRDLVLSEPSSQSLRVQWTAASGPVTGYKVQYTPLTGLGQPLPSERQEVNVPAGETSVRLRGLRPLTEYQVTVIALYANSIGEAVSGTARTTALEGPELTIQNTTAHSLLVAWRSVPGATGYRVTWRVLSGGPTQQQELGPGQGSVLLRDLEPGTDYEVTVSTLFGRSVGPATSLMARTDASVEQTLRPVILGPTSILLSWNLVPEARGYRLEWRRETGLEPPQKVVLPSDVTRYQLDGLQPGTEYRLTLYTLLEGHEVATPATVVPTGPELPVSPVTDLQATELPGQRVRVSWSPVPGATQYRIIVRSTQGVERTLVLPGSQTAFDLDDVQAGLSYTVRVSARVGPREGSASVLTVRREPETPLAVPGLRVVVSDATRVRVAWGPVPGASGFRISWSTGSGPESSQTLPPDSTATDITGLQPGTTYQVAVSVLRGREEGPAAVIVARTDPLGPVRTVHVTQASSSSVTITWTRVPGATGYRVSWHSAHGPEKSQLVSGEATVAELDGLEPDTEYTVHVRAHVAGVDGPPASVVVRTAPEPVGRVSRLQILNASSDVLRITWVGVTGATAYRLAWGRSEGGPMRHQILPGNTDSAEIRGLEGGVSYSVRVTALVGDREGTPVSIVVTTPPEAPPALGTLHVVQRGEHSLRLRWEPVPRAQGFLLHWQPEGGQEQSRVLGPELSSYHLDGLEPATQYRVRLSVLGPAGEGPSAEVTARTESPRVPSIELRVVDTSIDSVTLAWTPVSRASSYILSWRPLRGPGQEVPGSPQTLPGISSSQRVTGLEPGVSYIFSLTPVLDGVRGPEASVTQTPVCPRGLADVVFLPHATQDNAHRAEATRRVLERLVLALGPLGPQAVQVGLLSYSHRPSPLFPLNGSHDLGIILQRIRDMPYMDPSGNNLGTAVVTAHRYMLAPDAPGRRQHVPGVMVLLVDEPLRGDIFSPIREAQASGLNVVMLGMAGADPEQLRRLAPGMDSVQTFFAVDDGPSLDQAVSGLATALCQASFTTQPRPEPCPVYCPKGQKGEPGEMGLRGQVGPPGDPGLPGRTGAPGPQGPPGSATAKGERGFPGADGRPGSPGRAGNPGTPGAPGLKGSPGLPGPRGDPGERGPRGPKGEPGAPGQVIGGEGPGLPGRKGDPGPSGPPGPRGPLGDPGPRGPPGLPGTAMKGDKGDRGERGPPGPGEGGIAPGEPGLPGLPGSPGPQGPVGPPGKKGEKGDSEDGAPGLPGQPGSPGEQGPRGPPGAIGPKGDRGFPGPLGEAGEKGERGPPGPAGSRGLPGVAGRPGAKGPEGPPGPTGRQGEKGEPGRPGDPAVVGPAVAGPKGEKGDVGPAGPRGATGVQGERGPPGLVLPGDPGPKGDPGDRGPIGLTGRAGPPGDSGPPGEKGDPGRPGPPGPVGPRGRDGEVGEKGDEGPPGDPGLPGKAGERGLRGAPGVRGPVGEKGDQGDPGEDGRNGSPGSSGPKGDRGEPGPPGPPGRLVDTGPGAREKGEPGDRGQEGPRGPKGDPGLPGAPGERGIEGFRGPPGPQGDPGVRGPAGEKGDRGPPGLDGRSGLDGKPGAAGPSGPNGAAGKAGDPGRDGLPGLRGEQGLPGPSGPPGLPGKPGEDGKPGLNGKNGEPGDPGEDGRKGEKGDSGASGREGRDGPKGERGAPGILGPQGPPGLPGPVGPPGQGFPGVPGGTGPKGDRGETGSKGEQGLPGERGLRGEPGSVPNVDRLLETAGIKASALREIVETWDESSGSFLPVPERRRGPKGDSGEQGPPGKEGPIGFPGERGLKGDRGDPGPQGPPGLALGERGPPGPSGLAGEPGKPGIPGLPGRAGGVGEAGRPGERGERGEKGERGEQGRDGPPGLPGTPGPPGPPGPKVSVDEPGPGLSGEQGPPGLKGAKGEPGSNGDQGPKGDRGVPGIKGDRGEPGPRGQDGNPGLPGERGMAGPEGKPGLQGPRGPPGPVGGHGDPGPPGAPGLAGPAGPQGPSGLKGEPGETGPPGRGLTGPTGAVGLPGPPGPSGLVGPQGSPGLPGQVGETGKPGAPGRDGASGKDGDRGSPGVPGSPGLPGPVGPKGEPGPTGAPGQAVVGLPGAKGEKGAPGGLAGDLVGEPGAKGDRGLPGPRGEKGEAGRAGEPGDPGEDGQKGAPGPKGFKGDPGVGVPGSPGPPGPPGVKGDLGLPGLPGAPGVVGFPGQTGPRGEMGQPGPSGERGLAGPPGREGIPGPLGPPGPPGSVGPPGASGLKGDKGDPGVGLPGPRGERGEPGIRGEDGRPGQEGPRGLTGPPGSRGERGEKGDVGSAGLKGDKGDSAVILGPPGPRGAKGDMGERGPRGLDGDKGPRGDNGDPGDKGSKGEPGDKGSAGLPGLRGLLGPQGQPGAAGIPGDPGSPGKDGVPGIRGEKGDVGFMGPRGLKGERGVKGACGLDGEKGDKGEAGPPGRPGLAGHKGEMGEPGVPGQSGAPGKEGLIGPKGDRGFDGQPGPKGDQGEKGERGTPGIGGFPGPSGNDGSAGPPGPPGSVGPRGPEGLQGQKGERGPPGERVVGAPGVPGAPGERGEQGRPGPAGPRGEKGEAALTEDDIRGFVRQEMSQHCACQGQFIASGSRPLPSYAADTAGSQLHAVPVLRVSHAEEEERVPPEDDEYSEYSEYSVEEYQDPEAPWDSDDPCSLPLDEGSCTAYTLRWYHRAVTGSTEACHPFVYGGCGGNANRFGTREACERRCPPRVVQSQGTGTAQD
Experimental: (§1) In order to confirm the selectivity of peptides of SEQ ID NOS: 1 to 3 to collagen types, slot blotting was performed for types I, IV and VII collagen. The NC membrane was activated with TBST, and the peptides of SEQ ID NOS: 1, 2 and 3 were placed in each well at different concentrations (5, 10, 25, 50, and 100 μg/mL) and allowed to bind to the NC membrane in a vacuum for 2 hours. A 1% solution of each of types I, IV and VII collagen (MyBioSource, Inc., San Diego, CA, USA, MBS2018615) was added to the peptide-bound membrane and allowed to bind to the membrane in a vacuum for 2 hours. The membrane was washed with TBST, and the membrane to which the peptides and types I, IV, and VII collagen were attached was allowed to react with a primary rabbit anti-human type VII collagen antibody (MyBioSource, Inc., San Diego, CA, USA, MBS2004594) at a dilution ratio of 1:800 and with a secondary antibody goat anti-rabbit Ig G (BETHYL Lab., Montgomery, TX, USA, A90-116P) at a dilution ratio of 1:5000. The reacted membrane was washed with TBST, and a chemiluminescence test was performed using WEST-one.

[5] = system: colonic epithelial cells (Caco-2 cell); assay: Proliferation of colonic epithelial cells (CCK-8); type: cell-based; details: 100 μM, 3rd day, FIG. 5
Experimental: In order to confirm the proliferation and migration in colonic epithelial cells (Caco-2 cell, ATCC® HTB-37™) by the peptide according to the present invention, the cells were dispensed in an amount of 5×10^3 cells/well in a 96-well plate and then cultured for 24 hours in DMEM (Dulbecco's Modified Eagle Medium, Gibco). The peptides (SEQ ID NOS: 1, 2, and 3) were dispensed at a concentration of 100 μM in the cells and then cultured for up to 3 days at intervals of 1 day. The cell count was measured using a CCK-8 (Cell Counting Kit-8, CK04, Dojindo Lab.). After 1, 2, and 3 days, the medium containing the peptide was removed, 10% of a CCK-8 solution was added to fresh DMEM, and 100 μl thereof was then dispensed. After 1 hour and 30 minutes, absorbance was measured at 450 nm.

[6] = target: T3, type I collagen (Homo sapiens, UniProt P02452+P08123); assay: Slot blotting, selectivity to collagen types: type I (Experimental Example 2); type: binding; details: peptide at 5, 10, 25, 50 and 100 μg/mL, FIG. 3
T3 construct: purchased MyBioSource, Inc
Experimental: as §1

[7] = system: ZO-1; assay: Real-time RT-PCR of wound-healing marker ZO-1 in colonic epithelial cells; type: cell-based; details: Caco-2 cells; 50 and 100 μg/ml; 3 days; FIG. 4
Experimental: (§2) In order to confirm the expression level of the wound-healing marker in colonic epithelial cells (Caco-2 cell, ATCC® HTB-37™) by the peptide according to the present invention, colonic epithelial cells were dispensed in an amount of 5×10^6 cells/well in a 6-well plate and then cultured for 24 hours in DMEM (Dulbecco's Modified Eagle Medium, Gibco). The cells were treated with the peptides of SEQ ID NOS: 1, 2, and 3 at concentrations of 50 and 100 μg/ml and then cultured for up to 3 days. After 3 days, the cells were harvested and the gene expression levels of E-cadherin protein, which is highly expressed in colonic epithelial cells, and ZO-1 protein, which is highly expressed at the tight junction between colonic epithelial cells, were measured through real-time RT-PCR.
(§3) RNA was extracted from the obtained cells using TRIzol, and cDNA was synthesized using a kit from Thermo Scientific (cat. No. K1641). The same amount of cDNA was amplified by 40 cycles at 95° C.-60° C. using a SYBR green PCR master mix and a StepOnePlus™ Real-Time PCR System available from Applied Biosystems, and the ΔΔct values of individual groups were compared. The nucleotide sequences of the PCR primers used for amplification of each gene are as follows.

[8] = system: type IV collagen; assay: Slot blotting, selectivity to collagen types: type IV (Experimental Example 2); type: binding; details: peptide up to 100 μg/mL, FIG. 3
Experimental: as §1

[9] = system: E-cadherin; assay: Real-time RT-PCR of wound-healing marker E-cadherin in colonic epithelial cells; type: cell-based; details: Caco-2 cells; 50 and 100 μg/ml; 3 days; FIG. 4
Experimental: as §2, §3

[10] = system: Caco-2 cells; assay: Scratch migration of colonic epithelial cells; type: cell-based; details: Caco-2 scratch, 100 μM, FIG. 6
Experimental: In order to measure cell migration ability, Caco-2 cells (1×10^6 cells) were placed in a 6-well plate and cultured in DMEM supplemented with 10% fetal bovine serum (FBS) and 1% antibiotic-antimycotic solution (Gibco, Grand Island, N.Y., USA). The cells were washed with PBS and allowed to stand overnight in a medium containing 2% FBS. The central portion of the cell layer was scratched using a sterile 200 μl plastic pipette tip. The scratched cell layer was washed twice with PBS to remove unadhered cells. Each of the peptides of SEQ ID NOS: […] at a concentration of 100 μM to the medium, followed by culture for up to 48 hours. The extent of cell migration toward the center from the scratched edges was measured using an Olympus CKX41 inverted microscope (magnification: ×20).

[11] = system: DSS-induced chronic inflammatory bowel disease; assay: Therapeutic effect in animal model of DSS-induced chronic inflammatory bowel disease; type: in vivo, ICR mice
Experimental: In order to confirm the therapeutic effect of the synthesized peptide in animals, chronic inflammatory bowel disease was induced with DSS in ICR mice (Orient Bio). 1.5% DSS was used as drinking water for 7 days, water not containing DSS was provided for the next 7 days, and 1.5% DSS was used as drinking water for the next 7 days (FIG. 9A). Thereafter, the peptide of SEQ ID NO: 1 was administered through SC injection. The normal group (Normal, n=9) was not treated with DSS, and the untreated group (Untreated, n=9) was treated only with DSS, and no drug was injected. The positive control group (Infliximab, 5 mg/kg, n=9) and the peptide of SEQ ID NO: 1 (30 mg/kg, n=9) were injected once daily for 14 days. 28 days after the start of DSS administration, the animals were sacrificed by CO2 hyperventilation, the colons were collected, and the lengths thereof were compared. Additionally, the tissue was fixed and processed to prepare a paraffin block, and H&E staining was performed to determine whether the intestinal tissue was damaged.

Which “fluorescence in small intestine and colon (IVIS)” value [1] does the source give for Cy5.5 [reference compound] here?
Its value is “almost no fluorescence was observed at 180 minutes”.

What does the source list for “YGLRSKSKKFRRPDIQYPDAT-NH2 (C-terminus assumed) [SEQ ID NO: 1]”?
localization of peptide in DSS-induced mouse colon ([2]; 5% DSS 7 days): detected in colon tissue; localization of peptide in normal colon [2]: does not show any localization; fluorescence in small intestine and colon (IVIS) [1]: red fluorescence was constantly observed in the small intestine and colon from the initial 30 minutes to 180 minutes

Which colon length ([3]; 5% DSS 7 days, IP once daily, SEQ ID NO: 1 50 mg/kg, SAHA 25 mg/kg, antibody 1 mg/kg, p<0.05 vs untreated, FIG. 8) does the source give for O=C(CCCCCCC(=O)Nc1ccccc1)NO [SAHA] here?
Its colon length is “maintained the colon length”.

And the “inflammatory cells in the intestinal mucosa (H&E histology)” value ([3]; acute DSS model, FIG. 8 part c)?
Its value is “significantly decreased”.

What about the “villi structure (H&E histology)” value ([3]; acute DSS model, FIG. 8 part c) of the same molecule?
The value was “villi structure was maintained well”.

Which results are given for “RPRYYLYKHAYFYPHLKRFP (human bone sialoprpotein II 41-60) [SEQ ID NO: 2, Human bone sialoprotein II 41-60]”?
selectivity to type VII collagen versus types I and IV collagen [4]: higher selectivity to type VII collagen; peptide concentration at which binding to type VII collagen was observed ([4]; peptide at 5, 10, 25, 50 and 100 μg/mL, FIG. 3): at least 20 μg/mL; cell proliferation rate compared to the control group (cells not treated with the peptide) [5]: 56%; peptide concentration at which binding to type I collagen was observed [6]: 50 µg/mL; gene expression of ZO-1 [7]: increased with an increase in the concentration of the peptide; binding to type IV collagen [8]: did not bind; gene expression of E-cadherin [9]: increased with an increase in the concentration of the peptide; migration area ([10]; 2nd day): 75%; cell migration compared to cells not treated with the peptide ([10]; up to 48 hours): increased cell migration

For infliximab, which “inflammatory cells in the intestinal mucosa (H&E histology)” value ([11]; FIG. 9G) is on record?
The value was “inflammatory cells in the intestinal mucosa were observed”.

And the “villi structure (H&E histology)” value ([11]; FIG. 9G)?
Its value is “some improvement compared to the untreated group, but villous damage”.

What about the colon length ([11]; SEQ ID NO: 1 30 mg/kg SC, infliximab 5 mg/kg, once daily 14 days, p<0.05 vs untreated, FIG. 9D) of the same molecule?
Its colon length is “maintained the colon length”.
